These results are taken from EPA's ToxRefDB 2.

As usually defined, the LOAEL is the lowest dose or exposure tested at which an adverse effect was seen. A word on the NOAEL: it is the highest tested level that showed no adverse finding.

A value given as a limit tells only on which side of the number the result lay.

For series [1], the system named is mouse. The following applies: Combined chronic toxicity/carcinogenicity; b6c3f1; Oral; Feed; dose end: 103 week; group: systemic; systemic / in life observation / body weight / body weight.
The subject of series [2] is rat. The following applies: Combined chronic toxicity/carcinogenicity, fischer, Oral, Feed, dose end: 103 week, group: systemic.
Series [3] has as its system rat. The following applies: Sub-acute dermal toxicity, sprague dawley, Topical, dose end: 2 week, group: systemic.
Series [4] relates to rat. The following applies: Subchronic dermal toxicity, Topical, dose end: 68 day, group: systemic.
In series [5] the test system is rat. The following applies: Subchronic dermal toxicity, sprague dawley, Topical, dose end: 90 day, group: systemic, systemic / pathology microscopic / skin / acanthosis + systemic / pathology microscopic / skin / edema + systemic / pathology microscopic / ….
Series [6] concerns rat. The following applies: Multigenerational reproductive toxicity study, sprague dawley, Oral, Feed, dose end: 2 generation.
In series [7] the test system is rat. The following applies: Combined chronic toxicity/carcinogenicity, sprague dawley, Oral, Feed, dose end: 104 week, group: systemic.
Series [8] deals with mouse. The following applies: Carcinogenicity, cd1, Oral, Feed, dose end: 22 month, group: systemic.
Setting [9] is: systemic / pathology microscopic / pancreas / adenoma/carcinoma combined.
[10] abbreviates: systemic / in life observation / clinical signs / erythema.
[11] abbreviates: systemic / in life observation / clinical signs / erythema + systemic / in life observation / clinical signs / general pallor + systemic / ….
[12] abbreviates: systemic / in life observation / clinical signs / [other] + systemic / pathology gross / skin / thickened + systemic / pathology gross / ….
[13] abbreviates: group: offspring, systemic / in life observation / body weight / offspring (pup) weight.
Setting [14] is: group: parental, systemic / in life observation / body weight / body weight + systemic / in life observation / body weight / body weight gain.
The mark [15] stands for this setting: systemic / in life observation / body weight / body weight + systemic / in life observation / body weight / body weight gain.
Where [16] appears, read: systemic / in life observation / body weight / body weight + systemic / in life observation / body weight / body weight gain + systemic / ….
The mark [17] stands for this setting: systemic / in life observation / body weight / body weight + systemic / in life observation / body weight / body weight gain + systemic / in….

On to `CN(C)[C@@H]1C(=O)C(C(N)=O)=C(O)[C@@]2(O)C(=O)C3=C(O)c4c(O)cccc4[C@@](C)(O)[C@H]3C[C@@H]12.Cl` [Tetracycline hydrochloride], for which, in the series with mouse [1], the LEL amounted to 1500 mg/kg/day, the LOAEL came out at 1500 mg/kg/day, the NEL was less than 1500 mg/kg/day and the NOAEL is less than 1500 mg/kg/day. In addition, the LOAEL with rat [2] (systemic / pathology microscopic / liver / clear cell focus + systemic / pathology microscopic / liver / cytoplasmic alteration) worked out at 910 mg/kg/day. Moreover, the NOAEL with rat [2] (systemic / pathology microscopic / liver / clear cell focus + systemic / pathology microscopic / liver / cytoplasmic alteration + systemic…) worked out at 440 mg/kg/day. In the series on rat [2] (setting [9]), the LEL came to 440 mg/kg/day and the NEL was less than 440 mg/kg/day.
With `CC1(C)COCN1` [4,4-Dimethyloxazolidine], the LEL with rat [3] (setting [10]) was determined as 10 mg/kg/day; with rat [4] (systemic / in life observation / clinical signs / [other]), 19.5 mg/kg/day; in the series with rat [5], 30 mg/kg/day. For the same compound, the LOAEL with rat [3] (setting [10]) came to 10 mg/kg/day; in the series on rat [4] (setting [12]) it was 195 mg/kg/day; in the series with rat [5] it was 30 mg/kg/day. Moreover, the NEL amounted to 1 mg/kg/day with rat [3] (setting [11]), 1.95 mg/kg/day in the series with rat [4] (setting [12]) and 1 mg/kg/day with rat [5]. Moreover, the NOAEL came out at 1 mg/kg/day in the series on rat [3] (setting [11]), 19.5 mg/kg/day in the series with rat [4] (setting [12]) and 1 mg/kg/day in the series with rat [5].
With `COc1nc(NC(C)C)nc(NC(C)C)n1` [Prometon], the LEL in the series on rat [6] (setting [13]) came out at 35.1 mg/kg/day; with rat [6] (setting [14]), 35.1 mg/kg/day; in the series with rat [7] (setting [15]) it was 23.3 mg/kg/day; with mouse [8] (systemic / pathology microscopic / spleen / depletion) it was 70 mg/kg/day. The LOAEL with rat [6] (setting [13]) is 35.1 mg/kg/day; in the series with rat [6] (setting [14]) it was 35.1 mg/kg/day; with rat [7] (setting [15]), 23.3 mg/kg/day; in the series with mouse [8] (setting [17]) it was 737 mg/kg/day. The NEL was determined as 1.45 mg/kg/day in the series on rat [6] (setting [13]), 1.45 mg/kg/day in the series with rat [6] (setting [14]), 0.89 mg/kg/day in the series with rat [7] (setting [16]) and 1.7 mg/kg/day with mouse [8] (setting [17]). Also, the NOAEL came out at 1.45 mg/kg/day with rat [6] (setting [13]), 1.45 mg/kg/day with rat [6] (setting [14]), 0.89 mg/kg/day in the series on rat [7] (setting [16]) and 70 mg/kg/day with mouse [8] (setting [17]).
